# Measurements reported in patent US20230165242A1, “RODENTICIDAL BAIT AND METHOD OF CONTROLLING TARGET HARMFUL RODENTS” (priority 2020, published 2023).
# Key:
# [1] = in vivo; cited from earlier work
# [2] = system: warfarin-sensitive male OFA-Sprague-Dawley rats; test: Prothrombin level, Quick's time (bromadiolone / cholecalciferol gavage); format: in vivo, rat
# Description: Warfarin-sensitive male OFA-Sprague-Dawley rats (Charles River, L′Arbresles, France) are fed by gavage for 3 consecutive days with a gavage solution containing bromadiolone (LIPHATECH, France) and cholecalciferol (Sigma-Aldrich, France) in a solvent consisting of 95% (v/v) of oil and 5% (v/v) of DMSO. During this period of gavage, the rats are fed with a conventional solid feed and water in unlimited amounts. The concentrations of bromadiolone and cholecalciferol in the gavage solution are 0.1 g/kg (100 ppm) and 7.5 g/kg (7500 ppm) respectively. Each rat receives daily a volume of gavage solution calculated to correspond to 1 mL of gavage solution per kilogram of body weight. The OFA-Sprague-Dawley rats in two control groups are fed by gavage in the same conditions with gavage solutions containing bromadiolone (alone) at a concentration of 100 ppm or cholecalciferol (alone) at a concentration of 7500 ppm, respectively. 24 hours after the last gavage, a volume of blood is taken from each rat by intracardiac puncture and placed in a specimen tube containing sodium citrate. The animals are euthanized after puncture and the plasma is prepared by centrifugation. Quick's time (or clotting time) is evaluated on the plasma supplemented with sodium citrate, then decalcified and recalcified in the presence of calcium thromboplastin. Quick's time is evaluated by means of an optical device for clotting analysis (Option 2plus, Bio Mèrieux®). The results are presented [FIG. 2]. The average Quick's time measured on the plasma from the rats fed by gavage with bromadiolone (bar “B”) is 12.4 seconds (±1.8), the average Quick's time measured on the plasma from the rats fed by gavage with cholecalciferol (bar “C”) is 12.4 seconds (±0.9) and the average Quick's time measured on the plasma from the rats fed by gavage with the composition comprising bromadiolone and cholecalciferol (bar “D”) is 14.1 seconds (±2.7). The differences in values of Quick's time measured between the three groups of rats are not significant. The rats in the group of rats that received the combination of bromadiolone and cholecalciferol coagulate in the same way as the rats in the group of rats that received the gavage solution containing bromadiolone on the one hand and the rats in the group of rats that received the gavage solution containing cholecalciferol on the other hand. Quick's time for rats treated with a control solution formed from oil (95%, v/v) and DMSO (5%, v/v) is (bar “A”) 12.8 seconds (±2.3). Neither the gavage solution containing bromadiolone in combination with cholecalciferol, nor the gavage solution containing bromadiolone alone, nor the gavage solution containing cholecalciferol induces an increase of Quick's time relative to the control. […]
# [3] = system: warfarin-sensitive male OFA-Sprague-Dawley rats; test: Synergy of bromadiolone and cholecalciferol, gavage, survival; format: in vivo, rat; conditions: gavage 5 consecutive days; bromadiolone 0.1 mg/kg alone, cholecalciferol 7.5 mg/kg alone, or both combined; after 20 days of observation
# Description: A group of 10 warfarin-sensitive male OFA-Sprague-Dawley rats (Charles River, L′Arbresles, France), aged 10 weeks and with a body weight between 160 and 180 g, are fed by gavage for 5 consecutive days with a gavage solution containing bromadiolone (LIPHATECH, France) and cholecalciferol (Sigma-Aldrich, France) in a solvent consisting of 95% (v/v) of oil and 5% (v/v) of DMSO. During this period of gavage, the rats are fed with a conventional solid feed and water in unlimited amounts. The rats are fed by gavage with a volume of this gavage solution so as to administer an amount of bromadiolone corresponding to 0.1 mg of bromadiolone per kilogram of body weight of the rat fed by gavage and an amount of cholecalciferol corresponding to 7.5 mg of cholecalciferol per kilogram of body weight of the rat fed by gavage. The rats in two control groups, each consisting of 10 male OFA-Sprague-Dawley rats, are fed by gavage in the same conditions with gavage solutions containing, respectively, bromadiolone alone so as to administer an amount of bromadiolone corresponding to 0.1 mg of bromadiolone per kilogram of body weight of the rat fed by gavage and cholecalciferol alone so as to administer an amount of cholecalciferol corresponding to 7.5 mg of cholecalciferol per kilogram of body weight of the rat fed by gavage. […]
# [4] = system: warfarin-sensitive male OFA-Sprague-Dawley rats; test: Synergy of difethialone and cholecalciferol on warfarin-sensitive rats, gavage, survival; format: in vivo, rat; conditions: gavage once a day for 3 days; difethialone 125 μg/kg alone or combined with cholecalciferol 7.5 mg/kg; 20 days of observation
# Description: A group of warfarin-sensitive male OFA-Sprague-Dawley rats (Charles River, L′Arbresles, France), aged 10 weeks and with a body weight between 160 and 180 g, are fed by gavage once a day for 3 consecutive days with a gavage solution containing difethialone (LIPHATECH, France) and cholecalciferol (Sigma-Aldrich, France) in a solvent consisting of 95% (v/v) of oil and 5% (v/v) of DMSO. During this period of gavage, the rats are fed with a conventional solid feed and water in unlimited amounts. The amounts of difethialone and cholecalciferol administered are 125 μg per kilogram of body weight of the rat fed by gavage and 7.5 mg per kilogram of body weight of the rat fed by gavage, respectively. The rats in two control groups, each consisting of OFA-Sprague-Dawley rats, are fed by gavage in the same conditions with gavage solutions containing difethialone alone (125 μg/kg) or cholecalciferol alone (7.5 mg/kg), respectively. The percentage of rats surviving gavage is recorded daily, for 20 days counting from the first day of gavage. The results presented [FIG. 3] show the variation of the percentage of rodents surviving (in %) as a function of time (t, in days) following the first day of gavage. The rats fed by gavage with the difethialone solution (♦) have 100% survival after 20 days of observation. […]
# [5] = system: warfarin-sensitive male OFA-Sprague-Dawley rats; test: Prothrombin level, Quick's time (difethialone gavage); format: in vivo, rat; conditions: difethialone solution 100 ppm, 1 mL/kg
# Method: Nine warfarin-sensitive male OFA-Sprague-Dawley rats (Charles River, L′Arbresles, France) are fed by gavage for 3 consecutive days with difethialone (LIPHATECH, France) in solution in a mixture consisting of 90% (v/v) of oil and 10% (v/v) of DMSO. The concentration of difethialone in the gavage solution is 0.1 g/kg (100 ppm). Each rat receives daily a volume of gavage solution calculated to correspond to 1 mL of gavage solution per kilogram of its body weight […]. 24 hours after the last gavage, a volume of blood is taken from each rat by intracardiac puncture and placed in a specimen tube containing sodium citrate. The animals are euthanized after puncture and the plasma is prepared by centrifugation. […] Quick's time (or clotting time) is evaluated on the plasma supplemented with sodium citrate, then decalcified and recalcified in the presence of calcium thromboplastin. Quick's time is evaluated by means of an optical device for clotting analysis (Option 2plus, Bio Mèrieux®). The average Quick's time measured on the plasma from the rats fed by gavage with difethialone is 23.4 seconds (±6.1). For comparison, the average Quick's time of control rats fed by gavage with the solution without difethialone is 17.5 seconds (±2.1). The difference in values of Quick's time of the rats fed by gavage with the difethialone solution and with the control solution without difethialone is not significant.
# [6] = system: warfarin-sensitive male OFA-Sprague-Dawley rats; test: Dose/rodenticidal response effect of difethialone on warfarin-sensitive rats; format: in vivo, rat; conditions: gavage, 21 days
# Method: A gavage solution containing difethialone (LIPHATECH, France) in a solvent consisting of 95% (v/v) of oil and 5% (v/v) of DMSO is administered once a day for 3 consecutive days to warfarin-sensitive male OFA-Sprague-Dawley rats (Charles River, L′Arbresles, France), aged 10 weeks and with a body weight between 160 and 180 g. During this period of gavage, the rats are fed with a conventional solid feed and water in unlimited amounts. The doses of difethialone administered to the OFA-Sprague-Dawley rats, given in Table 6 hereunder, are expressed in micrograms of difethialone administered per kilogram of body weight of the gavage-fed rodent.
# The percentage of rats surviving gavage is recorded daily for 21 days counting from the first day of gavage.
# [7] = system: Female Sprague-Dawley rats that are homozygotic carriers of the Y139F mutation in the Vkorc1 gene; test: Synergy of difethialone and cholecalciferol on warfarin-resistant female Sprague-Dawley Y139F rats; format: in vivo, rat; conditions: gavage once a day for 3 days; difethialone 0.125 mg/kg alone, cholecalciferol 7.5 mg/kg alone, or both combined; 22 days of observation
# Description: Female Sprague-Dawley rats that are homozygotic carriers of the Y139F mutation in the Vkorc1 gene, aged 10 weeks, are acclimatized for 5 days in the presence of a conventional solid feed and water in unlimited amounts. These female Sprague-Dawley Y139F rats are fed by gavage once a day for 3 consecutive days with a gavage solution containing difethialone (LIPHATECH, France) and cholecalciferol (Sigma-Aldrich, France) in a solvent consisting of 95% (v/v) of oil and 5% (v/v) of DMSO. During this period of gavage, the rats are fed with a conventional solid feed and water in unlimited amounts. The amounts of difethialone and cholecalciferol administered are 0.125 mg per kilogram of body weight of the rat fed by gavage and 7.5 mg per kilogram of body weight of the rat fed by gavage, respectively. The rats in two control groups, each consisting of OFA-Sprague-Dawley […] rats, are fed by gavage in the same conditions with gavage solutions containing, respectively, difethialone alone so as to administer an amount of difethialone corresponding to 0.125 mg per kilogram of body weight of the rat fed by gavage and cholecalciferol alone so as to administer an amount of cholecalciferol corresponding to 7.5 mg per kilogram of body weight of the rat fed by gavage. The percentage of rats surviving gavage is noted daily for 21 days counting from the first day of gavage. […]
# [8] = system: male Sprague-Dawley rats that have undergone introgression, homozygotic carriers of the Y139F mutation in the Vkorc1 gene; test: Dose/rodenticidal response effect of difethialone on warfarin-resistant male Y139F rats; format: in vivo, rat; conditions: for Mortality, %: gavage, 21 days
# Method: A gavage solution containing difethialone (LIPHATECH, France) in a solvent consisting of 95% (v/v) of oil and 5% (v/v) of DMSO is administered once a day for 3 consecutive days to male Sprague-Dawley rats that have undergone introgression, which are homozygotic carriers of the Y139F mutation in the Vkorc1 gene. During this period of gavage, the rats are fed with a conventional solid feed and water in unlimited amounts. The doses of difethialone administered to the Sprague-Dawley rats that have undergone introgression, given in Table 9 hereunder, are expressed in micrograms of difethialone administered per kilogram of body weight of the gavage-fed rodent.
# The percentage of rats surviving gavage is noted daily for 21 days counting from the first day of gavage. 100% of the Sprague-Dawley rats that had undergone introgression survive gavage for 3 days with 0.125 mg of difethialone per kilogram of body weight per day.
# [9] = dose 100 μg/kg once a day for 3 days
# [10] = dose 500 μg/kg once a day for 3 days
smiles,measurement,setting,value
"C=C1/C(=C\C=C2/CCC[C@]3(C)[C@@H]([C@H](C)CCCC(C)(C)O)CC[C@@H]23)C[C@@H](O)C[C@@H]1O [Calcitriol, 1,25-dihydroxycholecalciferol]",half-life in the body,[1],~5 h
"O=c1oc2ccccc2c(O)c1C(CC(O)c1ccc(-c2ccc(Br)cc2)cc1)c1ccccc1 (stereo not shown) [bromadiolone, 3-[3-(4′-bromo[1,1′-biphenyl]-4-yl)-3-hydroxy-1-phenylpropyl]-4-hydroxy-2H-1-benzopyran-2-one]",anticoagulant effect (increase of Quick's time relative to the control),"[2]; 3 daily gavages, bromadiolone 100 ppm and/or cholecalciferol 7500 ppm solution, 1 mL/kg",not anticoagulants
same,average Quick's time (clotting time),"[2]; plasma 24 hours after last of 3 daily gavages, 1 mL/kg of solution with bromadiolone 100 ppm and/or cholecalciferol 7500 ppm",12.4 s
same,percentage of rats surviving,[3],100%
"O=c1sc2ccccc2c(O)c1C1CC(c2ccc(-c3ccc(Br)cc3)cc2)Cc2ccccc21 (stereo not shown) [difethialone, 3-(4′bromobiphenyl-4-yl)-1-(4-hydroxythiocoumarin-3-yl)-1,2,3,4-tetrahydronaphthalene]",percentage of rats surviving,[4],100%
same,anticoagulant effect (increase in Quick's time relative to the control),[5]; 3 daily gavages,not anticoagulating
same,haemorrhagic sign,[5]; 3 daily gavages,No haemorrhagic sign
same,average Quick's time (clotting time),[5]; plasma 24 hours after last of 3 daily gavages,23.4 s
same,"Mortality, %",[6]; dose 50 μg/kg once a day for 3 days,0%
same,"Mortality, %",[6]; [9],0%
same,"Mortality, %",[6]; dose 150 μg/kg once a day for 3 days,40%
same,"Mortality, %",[6]; dose 200 μg/kg once a day for 3 days,100%
same,"Mortality, %",[6]; [10],100%
same,percentage of rats surviving,[7],100%
same,"Mortality, %",[8]; [9],0%
same,"Mortality, %",[8]; dose 125 μg/kg once a day for 3 days,0%
same,"Mortality, %",[8]; dose 250 μg/kg once a day for 3 days,100%
same,"Mortality, %",[8]; [10],100%
same,rats surviving gavage,[8]; gavage for 3 days with 0.125 mg of difethialone per kilogram of body weight per day,100%
